Data from US20250034139A1, “AMINE COMPOUNDS HAVING ANTI-INFLAMMATORY, ANTIFUNGAL, ANTIPARASITIC, AND ANTICANCER ACTIVITY” (PHARMA CINQ, LLC, priority 2013, published 2025).
Converted amounts (≈) assume the structure as drawn.

Assays:
[1] = test system: PC-3 prostate cancer cells; test: Example T: sensitisation of PC-3 cells to doxorubicin, oxaliplatin, paclitaxel or vincristine, Wst1; assay type: cell-based, human; conditions: PC-3 cells, 72 hours; for viability at 2.5 µM: compound 2.5 μM alone; for Doxorubicin 3.5 μM: percent cell survival / Oxaliplatin 100 μM: percent cell survival / Paclitaxel 50 μM: percent cell survival / Vincristine 100 nM: percent cell survival: chemotherapy agent alone normalized to 100%; for viability at 0.4 µM: compound 0.4 μM alone
[2] = test system: 4T1 murine breast cancer cells; test: Example S: in vitro anticancer screen, 4T1 cells, Wst1; assay type: cell-based, mouse; conditions: Mus musculus, 4T1, 18 h, 18 hr, Wst1; for viability at 1 µM: read-out: 4T1 1 μM, percent of cancer cell survival relative to vehicle treated cells; for viability at 5 µM: read-out: 4T1 5 μM, percent of cancer cell survival relative to vehicle treated cells
How it was run: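 4T1 cells seeded at 1×10^4/well were exposed to compound at 1 μM or 5 μM for 18 hr after plating. Wst1 tetrazolium dye was then added for about 2 hr and absorbance read at 450 nm (reference 630 nm). Values are percent survival relative to vehicle-treated cells.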

THP-1 cells = test: Example D: LPS-triggered THP-1 cell death assay, acute/5-hour and chronic/48-hour; assay type: cell-based, Human; conditions: for Viable cell percent change, Chronic/48-hour, Mean: 10 ng/ml LPS, 0.1 μM test compound; for activity relative to AC in the LPS-triggered THP-1 cell death assay, in words: 0.1 μM, 5-hour and 48-hour time points
Protocol: Compounds of the invention were tested at 0.1 μM versus AC in the LPS-triggered THP-1 cell death assay. Both acute/5-hour and chronic/48-hour phases of cell death were assessed. Compounds were screened in batches with DMSO as the negative control and AC as the high activity control.

[3] = test system: PC3 human prostate cancer cells; test: Example S: in vitro anticancer screen, PC-3 cells, Wst1; assay type: cell-based; conditions: Homo sapiens, PC-3, approximately 20 hours, Wst1, read-out: PC-3, percent of cancer cell survival relative to vehicle treated cells
How it was run: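 PC-3 cells, 2×10^4 cells/well, exposed ~20 h to vehicle or compound at 0.4, 0.5 or 2.5 μM as specified per compound. Wst1 dye added for 2 h; absorbance 450 nm (reference 630 nm), triplicates. Values are percent cell survival versus vehicle-treated cells.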

[4] = test system: Candida albicans strain 3153; test: Example H: Candida albicans growth inhibition (OD 600 nm); assay type: cell-based; conditions: for MIC: Candida albicans, 3153, 24 hrs at 30° C., YPD, XLfit, read-out: MIC (uM) (99% of inhibition of fungal growth); for IC50: Candida albicans, 3153, read-out: IC50 (uM) (50% inhibition of fungal growth), 24 hrs at 30° C., YPD, XLfit
Protocol: A single colony of Candida Albicans was grown in 50 ml YPD broth overnight (19 hr). The cells were washed with PBS and 3.5×10^4 CFU/ml of C. Albicans (144 μl/well) in YPD medium were plated in 96 well plates. Test compounds were then added to each well with concentration ranged from 5 to 40 μM as final concentrations. The plates were incubated at 30° C. overnight (24 hrs) and OD at 600 nm was read at the end of incubation as an index of yeast cell density.
Part-I: Preparation of Candida albicans Cells • 1. One day prior to the inoculum preparation, pick a single colony of Candida albicans strain 3153 (lot #61794) from the Sabouraud Dextrose Agar plate using the inoculum loop and inoculate into a 250 mL flask containing 50 ml of YPD growth medium • 2. Incubate at 30° C. with shaking at 150 rpm for at least 18 hours with loosened lid to allow air in and facilitate growth. • 3. Examine an aliquot of the culture under a microscope for Candida cell morphology and lack of bacterial contamination; >95% of Candida cells should be blastoconidia. • 4. Transfer 25 ml the overnight culture into a 50-ml plastic disposable centrifuge tube, and centrifuge at 1000×g for 20 min. • 5. Discard the supernatant and wash the pellet with 4 ml of PBS at three times. Vortex and centrifuge, 1000×g for 10 min. • 6. After the third wash, dispense the pellet with 2 ml PBS and vortex. • 7. Make three 1:10 serial dilutions in sterile PBS (10^−1, 10^−2, 10^−3) from the 2 ml cell suspension using 15 ml culture tubes. The final volume in each tube is 5 ml. • 8. […] Make a 1:4 dilution in YPD medium from the 50-fold dilution of 10^−3 cell suspension for testing compounds. • The final C. albicans cell concentration for the test: 3.5×10^4 CFU/ml • 10. Plated 144 ul/well of the above dilution of cell on 96-well plates. Part-II: C. Albicans Growth Inhibition Testing with Compounds • 1. From 10 mM DMSO stock solutions, make serial dilutions of compounds to 0.13, 0.25, 0.40, 0.55, 0.75 and 1.0 mM solutions • 2. Add 6 ul each of diluted compound solutions per well in duplicates. The final concentrations were 0, 5, 10, 16, 22, 30 and 40 micromolar. • 3. Incubated all plates at 30 C for overnight (˜24 hours). • 4. Read absorbance at OD600 for each plate. • 5. Calculate the % inhibition of each compound against the DMSO treated cell.

[5] = Homo sapiens, Wst1, vehicle = 100, read-out: No Chemo: percent cell survival
[6] = compound 2.5 μM + doxorubicin 3.5 μM
[7] = compound 2.5 μM + oxaliplatin 100 μM
[8] = compound 2.5 μM + paclitaxel 50 μM
[9] = compound 2.5 μM + vincristine 100 nM
[10] = compound 0.4 μM + doxorubicin 3.5 μM
[11] = compound 0.4 μM + oxaliplatin 100 μM
[12] = compound 0.4 μM + paclitaxel 50 μM
[13] = compound 0.4 μM + vincristine 100 nM

MIC [4]	IC50 [4]	SMILES	viability at 2.5 µM [1, 5]	Doxorubicin 3.5 μM: percent cell survival [1, 6]	Oxaliplatin 100 μM: percent cell survival [1, 7]	Paclitaxel 50 μM: percent cell survival [1, 8]	Vincristine 100 nM: percent cell survival [1, 9]	viability at 1 µM [2]	viability at 5 µM [2]	Viable cell percent change, Chronic/48-hour, Mean (THP-1 cells)	viability at 2.5 µM [3]	viability at 0.4 µM [1, 5]	Doxorubicin 3.5 μM: percent cell survival [1, 10]	Oxaliplatin 100 μM: percent cell survival [1, 11]	Paclitaxel 50 μM: percent cell survival [1, 12]	Vincristine 100 nM: percent cell survival [1, 13]	viability at 0.4 µM [3]	also measured
99.7 µM (≈ 37.1 µg/mL)	50.9 µM	CCCCCCOCCCOCCCCCNc1ccnc2ccccc12 [BB, N-{5-[3-(Hexyloxy)propoxy]pentyl}quinolin-4-amine]	16.3%	20.4%	24.7%	25%	17.2%	59.6%	41.1%	0.65%	16.3%							
30.1 µM (≈ 11.4 µg/mL)	18.1 µM	COc1cccc(OCCCCCCCCNc2ccnc3ccccc23)c1 [BH, N-[8-(3-Methoxyphenoxy)octyl]quinolin-4-amine]						21%	19.3%	34.77%		98.5%	35.7%	30.6%	61%	71.6%	98.5%	activity relative to AC in the LPS-triggered THP-1 cell death assay, in words (THP-1 cells): equivalent activity to AC at both the 5-hour and 48-hour time points
108 µM (≈ 40.1 µg/mL)	45.7 µM	CCCCCCOCCCCCOCCCNc1ccnc2ccccc12 [BC, N-{3-[5-(Hexyloxy)pentyloxy]propyl}quinolin-4-amine]	26%	32.6%	32.3%	29.8%	28.9%	96.9%	47.2%	6.40%	26%							
113 µM (≈ 40.7 µg/mL)	43.2 µM	CCOCCCOCCCCCCCCNc1ccnc2ccccc12 [AJ, N-[8-(3-Ethoxypropoxy)octyl]quinolin-4-amine]						22.4%	21.1%			18.5%	33.1%	22.5%	20.8%	20.1%	18.5%	activity relative to AC in the LPS-triggered THP-1 cell death assay, in words (THP-1 cells): equivalent activity to AC at both the 5-hour and 48-hour time points
		O=C(NCCCCCCCCNc1ccnc2ccccc12)c1ccccc1 [DY, N-[8-(Quinolin-4-ylamino)octyl]benzamide]						88.9%	60.5%	45.25%								viability at 5 µM ([1]; Homo sapiens, compound 5 μM alone, Wst1, vehicle = 100, read-out: No Chemo: percent cell survival): 16.1%; Doxorubicin 3.5 μM: percent cell survival ([1]; compound 5 μM + doxorubicin 3.5 μM): 21.2%; Oxaliplatin 100 μM: percent cell survival ([1]; compound 5 μM + oxaliplatin 100 μM): 20.6%; Paclitaxel 50 μM: percent cell survival ([1]; compound 5 μM + paclitaxel 50 μM): 23.3%; Vincristine 100 nM: percent cell survival ([1]; compound 5 μM + vincristine 100 nM): 18.3%; viability at 5 µM ([3]; 5 μM): 16.1%
		CCCCCCOc1ccc(OCCCNc2ccnc3ccccc23)cc1 [CY, N-{3-[4-(Hexyloxy)phenoxy]propyl}quinolin-4-amine]						24.5%	29.1%	47.86%		40.5%	76.6%	84.3%	71.7%	81.7%	40.5%	
		COc1cccc(C(=O)NCCCCCCCCNc2ccnc3ccccc23)c1 [DZ, 3-Methoxy-N-[8-(quinolin-4-ylamino)octyl]benzamide]						23.7%	17.4%	73.5%		84.8%	85.6%	86.7%	71.8%	89%	84.8%	
		Fc1ccccc1OCCCCCCCCNc1ccnc2ccccc12 [DB, N-[8-(2-Fluorophenoxy)octyl]quinolin-4-amine]						20.1%	22.2%	20.47%		24.7%	56%	62.3%	40.3%	29.6%	24.7%	
		CCCCCCOCCCCCCCCCn1cnc2cnc3ccccc3c21 [FJ, 1-[9-(Hexyloxy)nonyl]-1H-imidazo[4,5-c]quinoline]						38.1%	24.5%	27.44%								viability at 0.5 µM ([1]; Homo sapiens, compound 0.5 μM alone, Wst1, vehicle = 100, read-out: No Chemo: percent cell survival): 38.6%; Doxorubicin 3.5 μM: percent cell survival ([1]; compound 0.5 μM + doxorubicin 3.5 μM): 75.1%; Oxaliplatin 100 μM: percent cell survival ([1]; compound 0.5 μM + oxaliplatin 100 μM): 93%; Paclitaxel 50 μM: percent cell survival ([1]; compound 0.5 μM + paclitaxel 50 μM): 97.3%; Vincristine 100 nM: percent cell survival ([1]; compound 0.5 μM + vincristine 100 nM): 82.2%; viability at 0.5 µM ([3]; 0.5 μM): 38.6%

SMILES	MIC [4]	IC50 [4]	viability at 2.5 µM [1, 5]	Doxorubicin 3.5 μM: percent cell survival [1, 6]	Oxaliplatin 100 μM: percent cell survival [1, 7]	Paclitaxel 50 μM: percent cell survival [1, 8]	Vincristine 100 nM: percent cell survival [1, 9]	viability at 1 µM [2]	viability at 5 µM [2]	Viable cell percent change, Chronic/48-hour, Mean (THP-1 cells)	viability at 2.5 µM [3]	viability at 0.4 µM [1, 5]	Doxorubicin 3.5 μM: percent cell survival [1, 10]	Oxaliplatin 100 μM: percent cell survival [1, 11]	Paclitaxel 50 μM: percent cell survival [1, 12]	Vincristine 100 nM: percent cell survival [1, 13]	viability at 0.4 µM [3]	also measured
CCCCOCCCCCCCCn1cnc2cnc3ccccc3c21 [BQ, 1-(8-Butoxyoctyl)-1H-imidazo[4,5-c]quinoline]		51.7 µM	21.4%	48.5%	25.1%	26.9%	21.4%			13.70%	21.4%							
